In paper PMC3513416 (Bioorganic & medicinal chemistry letters, 2009):

Target: T1, taspase1 (Homo sapiens, UniProt Q9H6P5)
T1 sequence (Q9H6P5 1-233 limits assumed): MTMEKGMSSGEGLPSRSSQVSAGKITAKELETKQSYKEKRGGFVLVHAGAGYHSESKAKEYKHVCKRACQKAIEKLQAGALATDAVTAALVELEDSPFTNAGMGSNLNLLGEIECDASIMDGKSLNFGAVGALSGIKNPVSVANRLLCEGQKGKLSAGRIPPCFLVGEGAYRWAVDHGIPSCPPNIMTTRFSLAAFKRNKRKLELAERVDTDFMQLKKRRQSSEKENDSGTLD
T1 sequence (Q9H6P5 234-420 limits assumed): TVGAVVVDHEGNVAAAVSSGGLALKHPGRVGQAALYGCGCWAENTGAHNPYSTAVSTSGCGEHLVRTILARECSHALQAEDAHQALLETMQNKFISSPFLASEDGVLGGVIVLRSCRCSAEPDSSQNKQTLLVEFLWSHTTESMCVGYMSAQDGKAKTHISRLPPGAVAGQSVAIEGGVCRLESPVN
Assay: Inhibition rates after different pre-incubation times
Type: biochemical
Settings: different amounts of pre-incubation time

In the case of Ac-Ile-Ser-Gln-Leu-Asp-vs [yzm18], the “time dependence of inhibition” value was “inhibition was not time dependent”.
